We go through 9 compounds from patent EP4737473A1, “NOVEL COMPLEMENT INHIBITOR AND PREPARATION, USE AND PRODUCT THEREOF” (Liu, Xiaorong, priority 2023, dated 2025).

Positions of bridges follow the written chain, without caps; N, C: chain ends. Non-standard residues stand in square brackets, D forms with d. Residues, ends and D or L forms follow the SMILES beside them. ξ: configuration not given here. Bpa = N[C@@H](Cc1ccc(C(=O)c2ccccc2)cc1)C(=O)O; Trp(7-aza) = N[C@@H](Cc1c[nH]c2ncccc12)C(=O)O; Trp(1-Me) = Cn1cc(C[C@H](N)C(=O)O)c2ccccc21; ξTrp(5-F) = NC(Cc1c[nH]c2ccc(F)cc12)C(=O)O; 2Nal = N[C@@H](Cc1ccc2ccccc2c1)C(=O)O; Api = NC1(C(=O)O)CCNCC1; Abu = CC[C@H](N)C(=O)O; Aib = CC(C)(N)C(=O)O

The target in test [1] is T1, His-tag recombinant human C3 protein (Homo sapiens, UniProt P01024). In words: BLI affinity assay (Bio-Layer Interferometry, Ni-NTA biosensor, ForteBio Octet). It counts as binding. The arrangement: purchased Sino Biological Inc. To be noted: for Kd: 60s association, 90s dissociation, PBS pH 8.0; for kon: association rate constant; for koff: dissociation rate constant, read-out: kdis. An excerpt: The BLI affinity assay was used to verify the effects of the cyclic peptides of the disclosure and the control product.
BLI refers to Bio-Layer Interferometry. The principle is: after visible light is emitted from the spectrometer, two reflected spectra are formed at the two interfaces of the optical film layer at the end of the sensor, and an interference spectrum is formed. Any change in film thickness caused by molecular binding can be reflected by the displacement value of the interference spectrum.
Subsequently, a 90s dissociation step was performed after the 60s association phase to obtain the Kd value by fitting the curve.
The stock solution was dissolved in 15% acetonitrile, and the working solution was serially diluted with PBS at pH 8.0.
On the technique in general: Biolayer interferometry detects binding as a change in optical thickness at a sensor tip.

Test [2] has as its system classical pathway complement. The experiment in a line: Classical pathway complement inhibition assay (ELISA, human plasma). The test is classed as biochemical. Particulars: human plasma 1:40 in VBS, 15 minutes at room temperature. The protocol: The half-inhibitory concentration values of SEQ ID NO.1-6 were evaluated by the classical pathway complement inhibition assay. The association constant (Ka), dissociation constant (Kd), and equilibrium dissociation constant (KD) were determined by surface plasmon resonance (SPR) assay.
The complement inhibition assay can be performed with reference to the following steps: Evaluation was performed by an established enzyme-linked immunosorbent assay (ELISA). Under normal ambient temperature, 96-well plates were coated with 50 µL of 1% ovalbumin in PBS for 2 hours. […] After washing, complement activation (C3b/iC3b/C3d bound to immune complexes) was detected using HRP-conjugated goat α-human C3 antibody (1:1000; MP Biomedicals). The reaction was performed using HRP substrate (0.05% ABTS and 0.1% H2O2 dissolved in 0.1 M sodium citrate, pH 4.2), and the absorbance was read at 405 nm using a VICTOR multi-label plate reader (PerkinElmer, Waltham, MA). 100% complement activation was obtained in the absence of the C3 peptide inhibitor, and the absorbance data obtained at 405 nm were converted to the percentage of complement inhibition. […] Surface plasmon resonance (SPR) experiments were performed using a Biacore 3000 instrument (GE Healthcare, Piscataway Town, NJ), and the binding affinity and kinetic characteristics of the cyclic peptides were evaluated by SPR.
Background: An ELISA detects its analyte on a solid surface through an enzyme-linked reagent.

In test [3] the target is C3 protein (Homo sapiens, UniProt P01024). In words: MST affinity assay (microscale thermophoresis, Monolith NT.115). It counts as binding. Particulars: polypeptide about 200 nM, 0.5×PBS, 15% ACN, maximum protein concentration 0.25 µM.
The target in test [4] is T1, His-tag recombinant human C3 protein. In words: BLI (ForteBio Octet), His-tag C3 on Ni-NTA biosensor, peptide in solution.
Target sequence in this assay (P01024 23-1663 limits assumed): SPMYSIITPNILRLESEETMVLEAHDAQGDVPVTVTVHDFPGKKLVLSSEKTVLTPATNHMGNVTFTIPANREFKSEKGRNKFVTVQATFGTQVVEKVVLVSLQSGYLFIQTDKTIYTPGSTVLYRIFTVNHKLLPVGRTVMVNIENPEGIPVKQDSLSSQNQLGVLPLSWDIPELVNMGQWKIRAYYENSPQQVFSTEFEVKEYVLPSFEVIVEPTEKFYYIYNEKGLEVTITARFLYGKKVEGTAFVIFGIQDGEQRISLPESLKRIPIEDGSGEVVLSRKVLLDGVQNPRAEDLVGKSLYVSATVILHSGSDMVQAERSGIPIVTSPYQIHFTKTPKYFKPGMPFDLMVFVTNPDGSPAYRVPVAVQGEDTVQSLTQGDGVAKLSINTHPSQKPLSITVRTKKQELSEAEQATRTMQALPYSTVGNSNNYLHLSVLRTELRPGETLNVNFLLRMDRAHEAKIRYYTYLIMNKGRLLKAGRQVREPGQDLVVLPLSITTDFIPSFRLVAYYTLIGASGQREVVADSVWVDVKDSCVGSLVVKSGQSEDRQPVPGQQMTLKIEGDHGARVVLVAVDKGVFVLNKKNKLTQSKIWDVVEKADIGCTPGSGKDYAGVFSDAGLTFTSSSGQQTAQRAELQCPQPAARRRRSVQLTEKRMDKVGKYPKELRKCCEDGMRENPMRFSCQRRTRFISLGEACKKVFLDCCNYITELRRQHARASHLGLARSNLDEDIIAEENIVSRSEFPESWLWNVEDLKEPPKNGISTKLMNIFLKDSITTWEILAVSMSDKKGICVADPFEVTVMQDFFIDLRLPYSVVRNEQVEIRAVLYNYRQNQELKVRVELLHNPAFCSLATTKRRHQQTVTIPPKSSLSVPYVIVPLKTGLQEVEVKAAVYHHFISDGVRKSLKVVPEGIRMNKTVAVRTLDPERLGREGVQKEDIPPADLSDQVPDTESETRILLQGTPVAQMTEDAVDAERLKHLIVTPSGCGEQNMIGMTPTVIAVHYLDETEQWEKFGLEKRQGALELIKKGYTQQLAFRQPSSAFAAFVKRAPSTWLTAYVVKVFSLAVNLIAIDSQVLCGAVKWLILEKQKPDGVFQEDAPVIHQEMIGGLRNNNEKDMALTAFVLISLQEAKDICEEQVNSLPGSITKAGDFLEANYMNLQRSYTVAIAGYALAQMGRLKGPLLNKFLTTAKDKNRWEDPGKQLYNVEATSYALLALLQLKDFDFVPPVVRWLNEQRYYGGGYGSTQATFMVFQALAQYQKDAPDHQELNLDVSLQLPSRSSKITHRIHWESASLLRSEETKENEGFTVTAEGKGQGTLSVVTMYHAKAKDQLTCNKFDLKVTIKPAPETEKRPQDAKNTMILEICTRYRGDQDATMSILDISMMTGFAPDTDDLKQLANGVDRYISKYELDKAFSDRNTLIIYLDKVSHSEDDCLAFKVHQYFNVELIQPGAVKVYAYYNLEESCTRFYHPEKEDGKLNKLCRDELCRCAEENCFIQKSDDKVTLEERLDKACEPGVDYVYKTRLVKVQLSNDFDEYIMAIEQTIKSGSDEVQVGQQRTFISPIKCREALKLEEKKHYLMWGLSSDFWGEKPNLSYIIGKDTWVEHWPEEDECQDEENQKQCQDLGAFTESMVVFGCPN
For test [5], the target named is C3 in human plasma (human) (UniProt P01024). The experiment in a line: cell-based or functional assay.
In test [6] the target is C3 protein (MST affinity assay) (Homo sapiens (Human)) (UniProt P01024). In words: MST (Monolith NT.115), retest; fluorescently labeled peptide, C3 protein titrated.
Test [7] has the same target. In words: MST (Monolith NT.115), fluorescently labeled peptide ~200 nM, C3 protein titrated from 0.25 uM.

Chain of C3 in human plasma (human) (P01024 23-1663): as the sequence (P01024 23-1663 limits assumed) above
Chain of C3 protein (MST affinity assay) (Homo sapiens (Human)) (P01024 23-667 limits assumed, form in doubt, chain 1 of 2): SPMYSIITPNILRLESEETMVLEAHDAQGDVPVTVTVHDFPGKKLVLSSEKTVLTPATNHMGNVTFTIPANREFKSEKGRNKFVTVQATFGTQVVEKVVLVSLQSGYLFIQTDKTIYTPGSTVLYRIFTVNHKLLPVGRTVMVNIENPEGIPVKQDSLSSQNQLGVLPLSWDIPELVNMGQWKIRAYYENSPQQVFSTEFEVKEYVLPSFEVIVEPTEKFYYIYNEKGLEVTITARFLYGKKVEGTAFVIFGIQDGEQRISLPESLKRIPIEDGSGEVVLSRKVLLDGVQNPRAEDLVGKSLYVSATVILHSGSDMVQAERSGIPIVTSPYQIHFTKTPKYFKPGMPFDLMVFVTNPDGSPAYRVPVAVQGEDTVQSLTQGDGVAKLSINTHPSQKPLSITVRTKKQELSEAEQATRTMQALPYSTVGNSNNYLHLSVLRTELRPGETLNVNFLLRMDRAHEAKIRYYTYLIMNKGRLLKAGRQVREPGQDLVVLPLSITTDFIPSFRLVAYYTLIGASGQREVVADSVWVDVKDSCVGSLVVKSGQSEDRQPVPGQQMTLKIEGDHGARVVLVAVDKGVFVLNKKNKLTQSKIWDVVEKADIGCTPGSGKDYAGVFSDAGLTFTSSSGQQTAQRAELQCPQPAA
Chain of C3 protein (MST affinity assay) (Homo sapiens (Human)) (P01024 672-1663 limits assumed, form in doubt, chain 2 of 2): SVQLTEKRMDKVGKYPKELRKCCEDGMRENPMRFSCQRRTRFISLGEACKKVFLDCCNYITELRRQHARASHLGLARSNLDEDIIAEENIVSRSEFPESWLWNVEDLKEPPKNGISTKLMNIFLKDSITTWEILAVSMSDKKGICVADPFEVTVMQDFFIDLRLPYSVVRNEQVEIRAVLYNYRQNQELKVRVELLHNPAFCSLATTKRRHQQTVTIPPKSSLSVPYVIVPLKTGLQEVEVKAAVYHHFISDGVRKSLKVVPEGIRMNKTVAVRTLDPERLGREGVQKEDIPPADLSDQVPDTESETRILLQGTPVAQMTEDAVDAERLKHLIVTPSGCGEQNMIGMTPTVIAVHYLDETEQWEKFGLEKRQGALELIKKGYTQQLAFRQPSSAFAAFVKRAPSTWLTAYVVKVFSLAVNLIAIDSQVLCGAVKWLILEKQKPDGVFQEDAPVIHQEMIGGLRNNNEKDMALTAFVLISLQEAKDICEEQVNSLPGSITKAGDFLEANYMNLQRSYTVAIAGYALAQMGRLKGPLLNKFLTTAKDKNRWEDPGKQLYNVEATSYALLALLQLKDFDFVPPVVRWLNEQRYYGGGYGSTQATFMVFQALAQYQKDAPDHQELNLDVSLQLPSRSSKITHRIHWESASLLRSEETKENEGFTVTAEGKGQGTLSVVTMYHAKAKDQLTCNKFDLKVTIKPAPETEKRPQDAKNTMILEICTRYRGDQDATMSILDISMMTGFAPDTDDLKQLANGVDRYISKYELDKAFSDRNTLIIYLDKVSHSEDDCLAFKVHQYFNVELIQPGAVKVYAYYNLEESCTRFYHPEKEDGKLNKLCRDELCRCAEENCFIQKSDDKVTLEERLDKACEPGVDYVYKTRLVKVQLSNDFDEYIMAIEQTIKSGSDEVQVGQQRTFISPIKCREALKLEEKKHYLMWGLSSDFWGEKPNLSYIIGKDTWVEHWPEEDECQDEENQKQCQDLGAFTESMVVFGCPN

What is called Kd is the concentration at which binding is half-saturated. Broadly, the kon is a measure of how fast the partners come together. Consider `CC[C@H](C)[C@H](NC(C)=O)C(=O)N[C@H]1CSSC[C@@H](C(=O)N[C@H](C(N)=O)[C@@H](C)O)NC(=O)[C@H](CCCNC(=N)N)NC(=O)[C@H](Cc2c[nH]cn2)NC(=O)C(C)(C)NC(=O)CNC(=O)[C@H](Cc2ccc3ccccc3c2)NC(=O)[C@H](CC(=O)O)NC(=O)[C@H](CCC(N)=O)NC(=O)[C@H](Cc2cn(C)c3ccccc23)NC(=O)[C@H](C(C)C)NC1=O` [SEQ ID NO.1, Ac-ICV-W(CH3)-QD-2Nal -G-Aib-HRCT-NH2(C-C)] (Ac-ICV[Trp(1-Me)]QD[2Nal]G[Aib]HRCT-NH2; disulfide 2-12), for which, in test [1], the equilibrium dissociation constant (Kd) is 3.19 µM, the kon came to 15400 M⁻¹ s⁻¹ and the koff is 0.0492 s⁻¹.
A word on the IC50: it is the concentration needed to halve the response being measured. A high value points to weaker potency. Compound `CC[C@H](C)[C@H](NC(C)=O)C(=O)N[C@H]1CSSC[C@@H](C(=O)N[C@H](C(N)=O)[C@@H](C)O)NC(=O)[C@H](CCCNC(=N)N)NC(=O)[C@H](Cc2c[nH]cn2)NC(=O)C(C)(C)NC(=O)CNC(=O)C(Cc2c[nH]c3ccc(F)cc23)NC(=O)[C@H](CC(=O)O)NC(=O)[C@H](CCC(N)=O)NC(=O)[C@H](Cc2c[nH]c3ncccc23)NC(=O)[C@H](C(C)C)NC1=O` (some centres unmarked) [SEQ ID NO.2, Ac-ICV-AzaTrp-QD-5F-Trp-G-Aib-HRCT-NH2(C-C)] (Ac-ICV[Trp(7-aza)]QD[ξTrp(5-F)]G[Aib]HRCT-NH2; disulfide 2-12) showed an IC50 in test [2] of 0.92 µM. Also, in test [1], the kon was 393000 M⁻¹ s⁻¹ and the koff worked out at 0.0179 s⁻¹.
`CC[C@H](C)[C@H](NC(C)=O)C(=O)N[C@H]1CSSC[C@@H](C(=O)N[C@H](C(N)=O)[C@@H](C)O)NC(=O)[C@H](CCCNC(=N)N)NC(=O)[C@H](Cc2c[nH]cn2)NC(=O)C(C)(C)NC(=O)CNC(=O)C(Cc2c[nH]c3ccc(F)cc23)NC(=O)[C@H](CC(=O)O)NC(=O)[C@H](CCC(N)=O)NC(=O)[C@H](Cc2ccc3ccccc3c2)NC(=O)[C@H](C(C)C)NC1=O` (some centres unmarked) [SEQ ID NO.3, Ac-ICV-2Nal-QD-5F-Trp-G-Aib-HRCT-NH2(C-C)] (Ac-ICV[2Nal]QD[ξTrp(5-F)]G[Aib]HRCT-NH2; disulfide 2-12): in test [1], the Kd is 0.0454 µM, the on-rate constant (kon) turned out to be 387000 M⁻¹ s⁻¹ and the koff is 0.0176 s⁻¹. In addition, in test [3], the Kd worked out at 0.0354 µM.
Compound `CC[C@@H]1NC(=O)[C@@H](NC(=O)[C@@H](NC(C)=O)[C@@H](C)CC)CSSC[C@@H](C(=O)N[C@H](C(N)=O)[C@@H](C)O)NC(=O)[C@H](CCCNC(=N)N)NC(=O)[C@H](Cc2c[nH]cn2)NC(=O)C2(CCNCC2)NC(=O)CNC(=O)C(Cc2c[nH]c3ccc(F)cc23)NC(=O)[C@H](CC(=O)O)NC(=O)[C@H](CCC(N)=O)NC(=O)[C@H](Cc2cn(C)c3ccccc23)NC1=O` (some centres unmarked) [SEQ ID NO.4, Ac-IC-Abu-W(CH3)-QD-5F-Trp -G-Pip-HRCT-NH2(C-C)] (Ac-IC[Abu][Trp(1-Me)]QD[ξTrp(5-F)]G[Api]HRCT-NH2; disulfide 2-12) displayed an IC50 in test [2] of 2.26 µM. Also, in test [1], the kon was 112000 M⁻¹ s⁻¹ and the koff stood at 0.0393 s⁻¹.
Turning to `CC[C@@H]1NC(=O)[C@@H](NC(=O)[C@@H](NC(C)=O)[C@@H](C)CC)CSSC[C@@H](C(=O)N[C@H](C(N)=O)[C@@H](C)O)NC(=O)[C@H](CCCNC(=N)N)NC(=O)[C@H](Cc2c[nH]cn2)NC(=O)C(C)(C)NC(=O)CNC(=O)C(Cc2c[nH]c3ccc(F)cc23)NC(=O)[C@H](CC(=O)O)NC(=O)[C@H](CCC(N)=O)NC(=O)[C@H](Cc2ccc3ccccc3c2)NC1=O` (some centres unmarked) [SEQ ID NO.5, Ac-IC-Abu- 2Nal -QD-5F-Trp -G-Aib-HRCT-NH2(C-C)] (Ac-IC[Abu][2Nal]QD[ξTrp(5-F)]G[Aib]HRCT-NH2; disulfide 2-12), in test [1], the dissociation constant Kd was 2.26 µM, the kon came out at 13100 M⁻¹ s⁻¹ and the koff amounted to 0.0296 s⁻¹.
As for `CC[C@H](C)[C@H](NC(C)=O)C(=O)N[C@H]1CSSC[C@@H](C(=O)N[C@H](C(N)=O)[C@@H](C)O)NC(=O)[C@H](CCCNC(=N)N)NC(=O)[C@H](Cc2c[nH]cn2)NC(=O)C(C)(C)NC(=O)CNC(=O)C(Cc2c[nH]c3ccc(F)cc23)NC(=O)[C@H](CC(=O)O)NC(=O)[C@H](CCC(N)=O)NC(=O)[C@H](Cc2ccc(C(=O)c3ccccc3)cc2)NC(=O)[C@H](Cc2ccc(O)cc2)NC1=O` (stereo partly drawn) [SEQ ID NO.6, Ac-IC-Tyr-Bpa-QD-5F-Trp -G-Aib-HRCT-NH2(C-C)] (Ac-ICY[Bpa]QD[ξTrp(5-F)]G[Aib]HRCT-NH2; disulfide 2-12), in test [1], the Kd was 39.9 µM, the kon was determined as 925 M⁻¹ s⁻¹ and the koff came to 0.0369 s⁻¹.
“SEQ ID NO.2: Ac-ICV-AzaTrp-QD-5F-Trp-G-Aib-HRCT-NH2 (C-C) (peptide)”: the equilibrium dissociation constant (Kd) in test [4] was determined as 0.0454 µM; in test [6], 0.0246 µM; in test [7], 0.114 µM. Moreover, in test [5], the IC50 (µm), classical pathway complement inhibition assay (ELISA, C3b/iC3b/C3d deposition from human plasma) was 0.92 µM.
In test [5], “SEQ ID NO.3: Ac-ICV-2Nal-QD-5F-Trp-G-Aib-HRCT-NH2 (C-C) (peptide)” gave an IC50 (µm), classical pathway complement inhibition assay (ELISA, C3b/iC3b/C3d deposition from human plasma) of 1.46 µM.
In the case of “SEQ ID NO.4: Ac-IC-Abu-W(CH3)-QD-5F-Trp-G-Pip-HRCT-NH2 (C-C) (peptide)”, in test [4], the Kd stood at 0.351 µM. In test [5], this compound registered an IC50 (µm), classical pathway complement inhibition assay (ELISA, C3b/iC3b/C3d deposition from human plasma) of 2.26 µM.
